Laboratory results taken from patent US20230192653A1, “Novel Therapeutic Methods” (GUANGZHOU MAXINOVEL PHARMACEUTICALS CO., LTD., priority 2020, published 2023).
Where “and” joins values, the source holds several entries; their conditions need not be identical. Identical values can stand only once. Entries after “also recorded” stand apart in the source; their conditions may differ.

Experiments:
Type in all cases: in vivo, human
[1] = test system: Gastric Cancer (patient tumor cells in mini-PDX capsules); assay: Mini-PDX assay, gastric cancer; details: Compound 1 12 mg per kg oral once daily 7 days, effective = P ≤ 0.05, per patient sample
Procedure: (§1) A mini patient-derived xenograft (mini-PDX) is used to assess the sensitivity of different tumors to treatment with Compound 1 (MAX-40279). In this experiment, clinical tumor samples from patients are treated in the mini-PDX by oral administration of Compound 1, and FGFR1OP2 expression level in those samples is analyzed.
(§2) Tumor tissue acquisition is approved by the ethics committees of each participating hospital and agreed to by each patient via written informed consent and is carried out according to state and institutional regulations on experimental use of human tissues. The patient samples are corrected if tumors >500 mm^3 in size with a necrotic area <30% are used. […]
(§3) Thereafter, the implanted capsules are removed, and tumor cell proliferation is evaluated using the CellTiter Glo Luminescent Cell Viability Assay kit (G7571, Promega, Madison, Wis., US) as instructed by the manufacturer. Luminescence is measured in terms of relative luminance unit (RLU) using a spectrophotometer (SpectraMax M3, Molecular Devices, Sunnyvale, Calif., US). Tumor cell growth inhibition (TCGI) (%) is calculated using the formula: TCGI %=(1−[mean RLU of the treatment group on day 7-mean RLU on day 0]/[Mean RLU of vehicle group on day 7−Mean RLU on day 0])×100%, Each experiment is done in sextuplicate and mean values are reported. […]

[2] = test system: Pancreatic Cancers (patient tumor cells in mini-PDX capsules); assay: Mini-PDX assay, pancreatic cancers; details: Compound 1 12 mg per kg oral once daily 7 days, effective = P ≤ 0.05, per patient sample
Procedure: as §1, §2, §3

[3] = test system: clinical tumor samples from patients; assay: Mini-PDX assay, all tumor samples from patients
Procedure: FIG. 1 is the RLU (ATP Enzyme activity) of cells from mini-PDX vehicles. The cancer cells derived from patients were embedded in the mini-PDX vehicles and implanted in the mice for cultivating 7 days. The mice were treated with MAX-40279(12mpk, PO, BID) or not. After 7 days, cells in mini-PDX vehicles were collected and ATP Enzyme activity was used to represent the cell viability.
as §1, with “analyzed. […]” for “analyzed.”
as §3

[4] = test system: Cholangiocarcinoma (patient tumor cells in mini-PDX capsules); assay: Mini-PDX assay, cholangiocarcinoma; details: Compound 1 12 mg per kg oral once daily 7 days, effective = P ≤ 0.05, per patient sample
Procedure: as §1, §2, §3

[5] = test system: Liver Cancers (patient tumor cells in mini-PDX capsules); assay: Mini-PDX assay, liver cancers; details: Compound 1 12 mg per kg oral once daily 7 days, effective = P ≤ 0.05, per patient sample
Procedure: as §1, §2, §3

[6] = test system: cancer patients; assay: Clinical efficacy of Compound 1 in cancer patients; set-up: key to CT Observation: Stable Disease, or SD, signifies that there has been no significant decrease or increase in the size of target lesions (including tumors), based on the smallest sum lesion diameter (LD); Progressive Disease, or PD, signifies that there has been an increase of at least 20% in the sum of the LD of targeted lesions; details: for CT Observation: per patient
Procedure: Stable Disease, or SD, signifies that there has been no significant decrease or increase in the size of target lesions (including tumors), based on the smallest sum lesion diameter (LD). Progressive Disease, or PD, signifies that there has been an increase of at least 20% in the sum of the LD of targeted lesions.
Patients are treated with Compound 1, given orally at the indicated daily dose. […] Although patients were not selected for high expression of FGFR1OP2 and FGFR1, the clinical response appears related to the expression levels of FGFR1OP2 and FGFR1. Squamous tumors seem particularly susceptible, as both patients with squamous tumors are SDs. Two of the three patients with SD are in 100 mg/day group, one of whom has 20% tumor reduction observed at the second and the fourth cycle by CT examination and is still under treatment. Adverse events are mild, so further dose escalation above 120 mg/day can be considered.

Compound: COc1cc(F)ccc1-c1c(C)sc2cnc(Nc3cnn(C4CCNCC4)c3)nc12 [Compound 1]
- Efficacy (P ≤ 0.05) [1]: Non-effective; also recorded: effective
- Efficacy (P ≤ 0.05) [2]: Non-effective; also recorded: effective
- share of tumor samples from patients in which Compound 1 is effective ([3]; 30 tumor samples, mini-PDX, 13/30): 43%
- Tumor cell growth inhibition (TCGI) ([3]; FIG. 1, initial screen of 4 samples, 7 days oral administration, compared to placebo): effective TCGI
- Efficacy (P ≤ 0.05) [4]: Non-effective; also recorded: effective
- Efficacy (P ≤ 0.05) [5]: Non-effective; also recorded: effective
- CT Observation ([6]; 40 mg oral daily dose): SD
- CT Observation ([6]; 70 mg oral daily dose): PD (Progressive Disease, or PD, signifies that there has been an increase of at least 20% in the sum of the LD of targeted lesions)
- tumor reduction by CT examination ([6]; 100 mg oral daily dose, CRC, observed at second and fourth cycle): 20%
- CT Observation ([6]; 100 mg oral daily dose): SD (2×) and PD (Progressive Disease, or PD, signifies that there has been an increase of at least 20% in the sum of the LD of targeted lesions)
- Adverse events ([6]; patients, 40-100 mg oral daily dose): mild
- stabilizes progression of the cancer (patients with SD) ([6]; seven patients, 40-100 mg oral daily dose): three of the seven patients
